Laboratory results as given in ChEMBL document CHEMBL1144595, “Novel pyridinyl and pyrimidinylcarbazole sulfonamides as antiproliferative agents” (Bioorg Med Chem Lett, 2007).
Values belong to the compound of their own block, whether it stands above or below them.

Experiments:
Type in all cases: functional, cell-based
CCRF-CEM = experiment: Cytotoxicity against human CEM cells
Bel-7402 = experiment: Antiproliferative activity against human Bel-7402 cells
MCF7 = experiment: Antiproliferative activity against human MCF7 cells
PC-3 = experiment: Antiproliferative activity against human PC3 cells
MOLT-3 = experiment: Antiproliferative activity against human Molt3 cells
[1] = Antiproliferative activity against human DND1 cells
DU-145 = experiment: Antiproliferative activity against human DU145 cells

Compound: CCn1c2ccccc2c2cc(S(=O)(=O)Nc3cc(OC)nc(OC)n3)ccc21
- IC50 (CCRF-CEM): > 2000 nM

Compound: CCn1c2ccccc2c2cc(S(=O)(=O)Nc3nc(OC)cc(OC)n3)ccc21
- IC50 (CCRF-CEM): > 2000 nM

Compound: COc1ccc(/C=C/c2ccc(OC)c(O)c2)c(OC)n1
- IC50 (CCRF-CEM): > 2000 nM

Compound: COc1ccc(NS(=O)(=O)c2ccc3c(c2)c2ccccc2n3C)c(OC)n1
- IC50 (CCRF-CEM): 101 nM

Compound: COc1ccc(NS(=O)(=O)c2ccc3c(c2)CCN3C)c(OC)n1
- IC50 (CCRF-CEM): > 2000 nM

Compound: CCn1c2ccccc2c2cc(/C=C\c3ccc(OC)nc3OC)ccc21
- IC50 (CCRF-CEM): > 2000 nM

Compound: CCn1c2ccccc2c2cc(/C=C/c3ccc(OC)nc3OC)ccc21
- IC50 (CCRF-CEM): > 2000 nM

Compound: CCn1c2ccccc2c2cc(S(=O)(=O)Nc3ccc(OC)nc3)ccc21
- IC50 (CCRF-CEM): 649 nM

Compound: CCn1c2ccccc2c2cc(S(=O)(=O)Nc3ccc(C)nc3C)ccc21
- IC50 (CCRF-CEM): > 2000 nM

Compound: CCn1c2ccccc2c2cc(S(=O)(=O)Nc3ccc(Cl)nc3Cl)ccc21
- IC50 (CCRF-CEM): > 2000 nM

- IC50 (Bel-7402): 976 nM
- IC50 (MCF7): 241 nM
- IC50 (PC-3): 603 nM
- IC50 (MOLT-3): 22 nM
- IC50 (DU-145): 729 nM
Compound: CCn1c2ccccc2c2cc(S(=O)(=O)Nc3ccc(OC)nc3OC)ccc21
- IC50 (CCRF-CEM): 122 nM
- IC50 [1]: 193 nM

Compound: CCn1c2ccccc2c2cc(S(=O)(=O)Nc3cc(Cl)nc(Cl)c3)ccc21
- IC50 (CCRF-CEM): > 2000 nM

Compound: CCn1c2ccccc2c2cc(S(=O)(=O)Nc3ccc(OC)cc3OC)ccc21
- IC50 (CCRF-CEM): 57 nM
- IC50 [1]: 120 nM

Compound: COc1ccc(NS(=O)(=O)c2ccc3c(ccn3C)c2)c(OC)n1
- IC50 (CCRF-CEM): 712 nM

Compound: CCn1c2ccccc2c2cc(S(=O)(=O)Nc3cccnc3OC)ccc21
- IC50 (CCRF-CEM): 786 nM

Compound: CCn1c2ccccc2c2cc(S(=O)(=O)Nc3cc(OC)ncn3)ccc21
- IC50 (CCRF-CEM): > 2000 nM

Compound: COc1ccc(/C=C\c2ccc(OC)c(O)c2)c(OC)n1
- IC50 (CCRF-CEM): 342 nM

Compound: CCn1c2ccccc2c2cc(S(=O)(=O)Nc3cc(OC)c(OC)c(OC)c3)ccc21
- IC50 (CCRF-CEM): 56 nM
- IC50 [1]: 89 nM

Compound: COc1ccc(/C=C\c2cc(OC)c(OC)c(OC)c2)cc1O [COMBRETASTATIN A4]
- IC50 [1]: 2.5 nM

Compound: COc1cc([C@@H]2c3cc4c(cc3[C@H](O)[C@H]3COC(=O)[C@H]23)OCO4)cc(OC)c1OC [PODOFILOX]
- IC50 (CCRF-CEM): 7.2 nM
- IC50 [1]: 12 nM
